From patent publication US20170119907A1, “Targeted Therapeutics” (MEDIVATION TECHNOLOGIES, INC., priority 2014, published 2017)

Assays:
ARH-77 cells [1] = test: Binding of compounds to ARH-77 cells (Example B1a); assay type: cell-based; conditions: photomicrographs, FIG. 2A
human MSCs [2] = test: Binding to and staining of human MSCs; assay type: cell-based; conditions: photomicrographs, FIG. 4A
[3] = tested on: rabbit dorsal femoral condyle explants; test: Binding to and staining of rabbit dorsal femoral condyle explants; conditions: photomicrographs, FIGS. 5A-B
ARH-77 cells [4] = test: Binding to ARH-77 cells (fluorescence staining); assay type: cell-based; conditions: 10 μM, 30 min; 530 nm/600 nm filter set; FIG. 2A
Protocol: ARH-77 cells (an EBV-transformed B lymphoblastoid cell line established from cells of a patient with plasma cell leukemia) were incubated as indicated with PBS or 10 μM Compound 4 for 30 min. Cells were washed twice with 1 mL PBS, and staining was detected using a 530 nm/600 nm filter set on a Molecular Imaging Gel Logic system.

human MSCs [5] = test: Human MSC proliferation, CELLTITER GLO assay (ATP levels); assay type: cell-based; conditions: 24 h, various concentrations, compared with untreated cells; FIG. 3A
Protocol: This example reports the effects of 24 hour treatment with Compound 4 on viability and proliferation of human MSCs.
Cell proliferation was measured using the CELLTITER GLO® assay (Promega), which measures ATP levels. Cells (5×10^5) were incubated with various concentrations of Compound 4 for 24 h. Proliferation was compared to that of untreated cells. Proliferation values for 24 h were normalized to time=0 and compared with values for untreated cells.

human MSCs [6] = test: Binding to human MSCs (visual inspection of staining); assay type: cell-based; conditions: 5 μM or 10 μM, 30 min; FIG. 4A
Protocol: Human MSCs were incubated without Compound 4 or with Compound 4 (5 μM or 10 μM) for 30 min and then washed twice with 1 mL PBS. Samples were visually inspected to determine staining

[7] = tested on: MSCs from sheep bone marrow; test: Differentiation of sheep MSCs to chondrocytes in pellet culture (modified Bern Score); assay type: cell-based; conditions: for Cell Distance / Matrix Stain / Morphology: score 0-3; for Final Score (Bern Score): score 0-9
Protocol: Compounds of the invention were assessed in an in vitro pellet cell culture model of chondrogenesis.
Conditions tested were: • a. (1) Priming: exposure of cells to TGFβ3 prior to incubation with Compound 4 or Compound 20; • b. (2) Dose: Concentration of Compound 4 or Compound 20 that cells were incubated with prior to pellet culture; and • c. (3) Media: presence or absence of TGFβ3 in the media used for the 3-week pellet culture duration.
A population of cells enriched for MSCs from sheep bone marrow was harvested, cultured and expanded. Cells from passage 3 (P3) were incubated with either chondrogenic differentiation medium for the Priming “+” groups or chondrogenic differentiation medium without TGFβ3 for the Priming “−” groups. Following centrifugation at 400×g for 5 min and gentle removal of the supernatant, cells were re-suspended with the appropriate number of cells in Compound 4 or Compound 20 in 1×PBS, pH 7, at following concentrations: 10 μM, 3.16 μM, 1 μM, and 0.316 μM of Compound 4; or 10 μM and 1 μM of Compound 20. For control conditions, cells were incubated in 1×PBS at pH 7. All treatment groups were then incubated for 30 min in the dark with nutation. Following centrifugation at 400×g for 5 min and gentle removal of the supernatant, cells were re-suspended and washed with 1×PBS at pH 7 and spun at 400×g for 5 min to remove supernatant. Depending on the condition, cells were re-suspended cells in chondrogenic differentiation medium OR in chondrogenic medium without TGFb3. Cells were counted, and approximately 2.5×10^5 cells were plated into polypropylene 96-well plates incubated under standard pellet culture conditions for three weeks. Medium was changed 3× weekly.
Pellets were fixed in 10% formalin for at least 8 hours and then infiltrated with paraffin wax. Sections were then cut at approximately 5 microns and stained using safranin-orange, Fast Green, Haematoxylin-Eosin, and 1% Toluidine Blue.
Histological grading was performed according to a modified Bern Score to assess chondrogenic morphology of the cells and any matrix deposition by the cells according to the following three criteria:
The subcomponents of the Bern Score are additive. Accordingly, the Bern Score presents a maximum total score of 9 representing the best possible score and minimum score of 0 representing no chondrogenesis.
In this Example, the Bern Score for Control pellets is a proxy for chondrogenic capacity of the cell population using a standard pellet culture protocol. […] Pellets that were formed using the 30 minute incubation protocol with only PBS replacing Compound 4 (0 μM Compound 4) are referred to as “PBS pellets.”

Raji cells [8] = test: Viability of Raji cells treated with compound (Example B2); assay type: cell-based; conditions: concentrations of 20 μM or below, FIG. 3C
Raji cells [9] = test: Raji cell viability, trypan blue staining; assay type: cell-based; conditions: times and concentrations tested (at or below 20 μM), FIG. 3C
Protocol: Cell viability was measured by using trypan blue to stain dead cells. Cells (2×10^5) were incubated with various concentrations of Compound 4 for 30 min, and viable cells were counted and compared to the number of viable cells in an untreated sample. Values for treated cells were normalized to untreated cells.
In a similar fashion to Example B2a, Compound 20 was assessed for its effect on viability of Raji cells as determined by trypan blue staining, as described in Example B2a.

[10] = Differentiation Medium +, TGFβ3 Priming +, 0.316 μM
[11] = Differentiation Medium +, TGFβ3 Priming +, 1 μM
[12] = Differentiation Medium +, TGFβ3 Priming +, 3.16 μM
[13] = Differentiation Medium +, TGFβ3 Priming +, 10 μM
[14] = Differentiation Medium +, TGFβ3 Priming −, 0.316 μM
[15] = Differentiation Medium +, TGFβ3 Priming −, 1 μM
[16] = Differentiation Medium +, TGFβ3 Priming −, 3.16 μM
[17] = Differentiation Medium +, TGFβ3 Priming −, 10 μM
[18] = Differentiation Medium −, TGFβ3 Priming +, 0.316 μM
[19] = Differentiation Medium −, TGFβ3 Priming +, 1 μM
[20] = Differentiation Medium −, TGFβ3 Priming +, 3.16 μM
[21] = Differentiation Medium −, TGFβ3 Priming +, 10 μM

Cc1cc2nc3cc(C)c(NCCCCCCCCNc4cc5c(cc4C)nc4cc(C)c(N)cc4[n+]5-c4ccccc4)cc3[n+](-c3ccccc3)c2cc1N.[Cl-].[Cl-] [Compound 4, 7,7′-(octane-1,8-diylbis(azanediyl))bis(3-amino-2,8-dimethyl-5-phenylphenazin-5-ium) chloride]
binding to ARH-77 cells (ARH-77 cells [1]): binding
binding to and staining of human MSCs (human MSCs [2]): binds to and stains
binding to and staining of rabbit dorsal femoral condyle explants [3]: bind to and stain
binding to ARH-77 cells (ARH-77 cells [4]): binds to ARH-77 cells
Effect on human MSC proliferation (human MSCs [5]): does not affect human MSC proliferation
Binding to human MSCs (visual staining) (human MSCs [6]): binds human MSCs
Chondrogenic capacity (in words) ([7]; 3.16 μM and differentiation medium): good chondrogenic capacity
Cell Distance [7, 10]: 3
Matrix Stain [7, 10]: 3
Morphology [7, 10]: 3
Final Score (Bern Score) [7, 10]: 9
Cell Distance [7, 11]: 2.5
Matrix Stain [7, 11]: 3
Morphology [7, 11]: 2
Final Score (Bern Score) [7, 11]: 7.5
Cell Distance [7, 12]: 2
Matrix Stain [7, 12]: 2
Morphology [7, 12]: 2
Final Score (Bern Score) [7, 12]: 6
Cell Distance [7, 13]: 0
Matrix Stain [7, 13]: 0
Morphology [7, 13]: 0
Final Score (Bern Score) [7, 13]: 0
Cell Distance [7, 14]: 2.5
Matrix Stain [7, 14]: 3
Morphology [7, 14]: 2.5
Final Score (Bern Score) [7, 14]: 8
Cell Distance [7, 15]: 2
Matrix Stain [7, 15]: 2.5
Morphology [7, 15]: 2
Final Score (Bern Score) [7, 15]: 6.5
Cell Distance [7, 16]: 2
Matrix Stain [7, 16]: 2
Morphology [7, 16]: 2
Final Score (Bern Score) [7, 16]: 6
Cell Distance [7, 17]: 0
Matrix Stain [7, 17]: 0.5
Morphology [7, 17]: 0
Final Score (Bern Score) [7, 17]: 0.5
Cell Distance [7, 18]: 0
Matrix Stain [7, 18]: 0
Morphology [7, 18]: 0
Final Score (Bern Score) [7, 18]: 0
Cell Distance [7, 19]: 0
Matrix Stain [7, 19]: 0
Morphology [7, 19]: 0
Final Score (Bern Score) [7, 19]: 0
Cell Distance [7, 20]: 0
Matrix Stain [7, 20]: 0.5
Morphology [7, 20]: 0
Final Score (Bern Score) [7, 20]: 0.5
Cell Distance [7, 21]: 0
Matrix Stain [7, 21]: 0
Morphology [7, 21]: 0
Final Score (Bern Score) [7, 21]: 0

Cc1cc2nc3cc(C)c(NCCCCCCNC(=O)c4ccc(-c5ccc(C(=O)NCCCCCCNc6cc7c(cc6C)nc6cc(C)c(N)cc6[n+]7-c6ccccc6)cc5)cc4)cc3[n+](-c3ccccc3)c2cc1N.[Cl-].[Cl-] [Compound 20, (3-amino-7-{[6-({4-[4-({6-[(7-amino-5-chloranuide-2,8-dimethyl-5-phenyl-5λ^6,10-phenazin-5-ylium-3-yl)amino]hexyl}carbamoyl)phenyl]phenyl}formamido)hexyl]amino}-2,8-dimethyl-5-phenyl-5λ^6,10-phenazin-5-ylium-5-e)chloranuide]
viability of Raji cells relative to untreated control Raji cells (Raji cells [8]): do not affect
binding to and staining of rabbit dorsal femoral condyle explants [3]: bind to and stain
Toxic effects on Raji cells (viability) (Raji cells [9]): did not have toxic effects
Cell Distance [7, 11]: 3
Matrix Stain [7, 11]: 3
Morphology [7, 11]: 2.5
Final Score (Bern Score) [7, 11]: 8.5
Cell Distance [7, 13]: 2.5
Matrix Stain [7, 13]: 2.5
Morphology [7, 13]: 2.5
Final Score (Bern Score) [7, 13]: 7.5
Cell Distance [7, 15]: 2.5
Matrix Stain [7, 15]: 2.5
Morphology [7, 15]: 2
Final Score (Bern Score) [7, 15]: 7
Cell Distance [7, 17]: 2
Matrix Stain [7, 17]: 2
Morphology [7, 17]: 2
Final Score (Bern Score) [7, 17]: 6
Cell Distance [7, 19]: 0
Matrix Stain [7, 19]: 0
Morphology [7, 19]: 0
Final Score (Bern Score) [7, 19]: 0
Cell Distance [7, 21]: 0
Matrix Stain [7, 21]: 0
Morphology [7, 21]: 0
Final Score (Bern Score) [7, 21]: 0
Chondrogenic capacity (in words) ([7]; either concentration tested (10 μM and 1 μM) and differentiation medium): good chondrogenic capacity
